Results as given in patent US20230133958A1, “COMPOUNDS USEFUL IN MODULATING EGFR AND PI3K” (Mekanistic Therapeutics LLC, priority 2021, published 2023).

Legend:
Format in all cases: cell-based
T-47D = assay: NCI COMPARE panel (SRB growth inhibition), T-47D; details: Homo sapiens, T47D, Breast Cancer, 48 h
Protocol: (§1) The human tumor cell lines of the cancer screening panel are grown in RPMI 1640 medium containing 5% fetal bovine serum and 2 mM L-glutamine. For a typical screening experiment, cells are inoculated into 96 well microtiter plates in 100 µL at plating densities ranging from 5,000 to 40,000 cells/well depending on the doubling time of individual cell lines. After cell inoculation, the microtiter plates are incubated at 37° C., 5% CO2, 95% air and 100% relative humidity for 24 h prior to addition of experimental drugs.
(§2) After 24 h, two plates of each cell line are fixed in situ with TCA, to represent a measurement of the cell population for each cell line at the time of drug addition (Tz). Experimental drugs are solubilized in dimethyl sulfoxide at 400-fold the desired final maximum test concentration and stored frozen prior to use. […]
(§3) Following drug addition, the plates are incubated for an additional 48 h at 37° C., 5 % CO2, 95% air, and 100% relative humidity. […] Bound stain is subsequently solubilized with 10 mM trizma base, and the absorbance is read on an automated plate reader at a wavelength of 515 nm. […] Using the seven absorbance measurements [time zero, (Tz), control growth, (C), and test growth in the presence of drug at the five concentration levels (Ti)], the percentage growth is calculated at each of the drug concentrations levels. Percentage growth inhibition is calculated as: […]

SF-295 = assay: NCI COMPARE panel (SRB growth inhibition), SF-295; details: Homo sapiens; CNS Cancer, SF-295, 48 h
Protocol: as §1, §2, §3

SNB-19 = assay: NCI COMPARE panel (SRB growth inhibition), SNB-19; details: Homo sapiens; CNS Cancer, SNB-19, 48 h
Protocol: as §1, §2, §3

SW-620 = assay: NCI COMPARE panel (SRB growth inhibition), SW-620; details: Homo sapiens; Colon Cancer, SW-620, 48 h
Protocol: as §1, §2, §3

CCRF-CEM = assay: NCI COMPARE panel (SRB growth inhibition), CCRF-CEM; details: Homo sapiens, Leukemia, 48 h
Protocol: as §1, §2, §3

HL-60(TB) = assay: NCI COMPARE panel (SRB growth inhibition), HL-60(TB); details: Homo sapiens, Leukemia, 48 h
Protocol: as §1, §2, §3

MALME-3M = assay: NCI COMPARE panel (SRB growth inhibition), MALME-3M; details: Homo sapiens, Melanoma, 48 h
Protocol: as §1, §2, §3

MDA-MB-435 = assay: NCI COMPARE panel (SRB growth inhibition), MDA-MB-435; details: Homo sapiens; Melanoma, MDA-MB-435, 48 h
Protocol: as §1, §2, §3

UACC-62 = assay: NCI COMPARE panel (SRB growth inhibition), UACC-62; details: Homo sapiens; Melanoma, UACC-62, 48 h
Protocol: as §1, §2, §3

NCI-H23 = assay: NCI COMPARE panel (SRB growth inhibition), NCI-H23; details: Homo sapiens; Non-Small Cell Lung Cancer, NCI-H23, 48 h
Protocol: as §1, §2, §3

OVCAR-3 = assay: NCI COMPARE panel (SRB growth inhibition), OVCAR-3; details: Homo sapiens; Ovarian Cancer, OVCAR-3, 48 h
Protocol: as §1, §2, §3

OVCAR-4 = assay: NCI COMPARE panel (SRB growth inhibition), OVCAR-4; details: Homo sapiens; Ovarian Cancer, OVCAR-4, 48 h
Protocol: as §1, §2, §3

OVCAR-5 = assay: NCI COMPARE panel (SRB growth inhibition), OVCAR-5; details: Homo sapiens; Ovarian Cancer, OVCAR-5, 48 h
Protocol: as §1, §2, §3

CAKI-1 = assay: NCI COMPARE panel (SRB growth inhibition), CAKI-1; details: Homo sapiens; Renal Cancer, CAKI-1, 48 h
Protocol: as §1, §2, §3

TK-10 = assay: NCI COMPARE panel (SRB growth inhibition), TK-10; details: Homo sapiens; Renal Cancer, TK-10, 48 h
Protocol: as §1, §2, §3

| Compound | GI50 (T-47D) [nM] | GI50 (SF-295) [nM] | GI50 (SNB-19) [nM] | GI50 (SW-620) [nM] | GI50 (CCRF-CEM) [nM] | GI50 (HL-60(TB)) [nM] | GI50 (MALME-3M) [nM] | GI50 (MDA-MB-435) [nM] | GI50 (UACC-62) [nM] | GI50 (NCI-H23) [nM] | GI50 (OVCAR-3) [nM] | GI50 (OVCAR-4) [nM] | GI50 (OVCAR-5) [nM] | GI50 (CAKI-1) [nM] | GI50 (TK-10) [nM] |
| --- | --- | --- | --- | --- | --- | --- | --- | --- | --- | --- | --- | --- | --- | --- | --- |
| CS(=O)(=O)Nc1cc(-c2ccc3ncnc(Nc4cccc(Cl)c4F)c3c2)cnc1Cl [Compound 6, N-[2-chloro-5-[4-(3-chloro-2-fluoro-anilino)quinazolin-6-yl]-3-pyridyl] methanesulfonamide] | ≤ 75 | 125 to 250 | 125 to 250 | > 250 | 125 to 250 | 75 to 125 | ≤ 75 | 125 to 250 | ≤ 75 | 125 to 250 | 75 to 125 | > 250 | 125 to 250 | ≤ 75 | ≤ 75 |
| CS(=O)(=O)Nc1cc(-c2ccc3ncc(C#N)c(Nc4cccc(Cl)c4F)c3c2)cnc1Cl [Compound 10, N-[2-chloro-5-[4-(3-chloro-2-fluoro-anilino)-3-cyano-6-quinolyl]-3-pyridyl]methanesulfonamide] | 125 to 250 | 125 to 250 | 125 to 250 | ≤ 75 | ≤ 75 | ≤ 75 | 75 to 125 | 125 to 250 | 75 to 125 | 125 to 250 | > 250 | > 250 | > 250 | ≤ 75 | 75 to 125 |
